Test results taken from patent publication US20070249590A1, “Substituted indolo[2,3-a]pyrrolo[3,4-c]carbazole compounds useful in treating kinase disorders” (priority 2005, published 2007).

Molecular target: T1, JAK3 (JH1 and JH2 domain) (Homo sapiens, UniProt P52333)
T1 sequence (P52333 521-1111 limits assumed): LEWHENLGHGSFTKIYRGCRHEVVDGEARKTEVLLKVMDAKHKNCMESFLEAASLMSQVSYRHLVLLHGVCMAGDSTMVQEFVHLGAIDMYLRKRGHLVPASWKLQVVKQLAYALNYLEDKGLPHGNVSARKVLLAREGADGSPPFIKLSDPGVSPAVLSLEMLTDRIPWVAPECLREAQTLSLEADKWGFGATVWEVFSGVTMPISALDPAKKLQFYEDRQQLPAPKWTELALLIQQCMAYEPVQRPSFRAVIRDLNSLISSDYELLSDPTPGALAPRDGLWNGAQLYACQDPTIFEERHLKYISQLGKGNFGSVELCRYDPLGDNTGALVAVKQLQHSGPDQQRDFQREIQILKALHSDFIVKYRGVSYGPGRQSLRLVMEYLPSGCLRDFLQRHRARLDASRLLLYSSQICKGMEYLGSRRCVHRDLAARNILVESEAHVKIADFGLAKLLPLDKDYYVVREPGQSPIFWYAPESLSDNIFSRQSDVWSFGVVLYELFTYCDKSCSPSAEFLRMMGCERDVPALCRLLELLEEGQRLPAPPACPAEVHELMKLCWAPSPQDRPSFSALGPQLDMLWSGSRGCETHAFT
Assay: JAK3 Kinase Assay (ELISA of peptide substrate phosphorylation)
Format: biochemical
Details: purified JAK3 enzyme, 10 μM ATP, biotinylated peptide substrate, 1 hour at room temperature
Method: JAK3 enzyme activity was assayed relative to enzyme phosphorylation using the method described herein.
Sf21 cells derived from the ovarian tissue of the fall armyworm Spodotera frugiperda were obtained from Pharmingen (San Diego, Calif.) and maintained at a temperature of about 26-28° C. in 1 l Bellco spinner flasks at 60-90 rpm. Cell viability was maintained at 95-100%, as determined by a tryptan blue dye exclusion test.
Sf21 cells were infected with a baculovirus expression vector for JAK3 (JH1 and JH2 domain). After 48 hours of infection, cells were harvested and lysed in Tris-saline (pH 7.6) containing 2% NP-40 and a combination of protease inhibitors (Aprotinin, Pepstatin A, Pefabloc, E-64, Leupeptin, and Benzamidine) on ice for 45 minutes.
The JAK3 enzyme was purified from the lysate using glutathione sepharose beads and the enzyme activity was assessed in Costar flat bottom EIA/RIA 96 well plates. The plates were coated with Neutravidin (110 μL) (Pierce Neutravidin Biotin-binding Protein 31000; 1 mg/mL 1:100) diluted in PBS for 1 hour at room temperature. The plates were washed with PBS-0.1% Tween (3 times) to remove unbound Neutravidin, then 1% BSA (150 NIL) in PBS was added to each well to block non-specific binding. The plates was incubated for 1 hour at room temperature and stored at −80° C. until use.
JAK3 enzyme solution (48 μL) in 1.25×TK buffer (62.5 mM HEPES pH 7.5, 12.5 mM MgCl2) containing DTT (42 mM) (Sigma, St. Louis, Mo.) was added to each well of a polypropylene 96 well plate.
A test compound (5 μL) diluted in DMSO (48 μL) and biotinylated peptide enzyme substrate (5 μg diluted in TK buffer containing 10 μM ATP) were added to each well using the double dispense feature of a multichannel electronic biohit. Control wells received DMSO vehicle (5 μL). The contents of the wells were mixed for approximately 8 seconds using a multitube vortexer and the reaction mixture was incubated for 1 hour at room temperature.
After incubation, an aliquot of reaction mixture (90 μL) was transferred into a washed Neutravidin coated plate. The plate was incubated for 15 minutes at room temperature and washed 3 times with PBS-T. PY99 anti-phosphotyrosine antibody (100 μL/well) (Santa Cruz #sc-7020HRP diluted 1:6000 in 1× antibody buffer) was added into each well and the plate was incubated for 40 minutes at room temperature. The antibody buffer contained 10% BSA, 100 mM Tris (pH 7.5), 1M NaCl and 1% Tween 20. The plate washed 3 times with PBS-T, then TMB (100 pLXSigma, St. Louis, Mo.) was added to the each well. The plate was incubated for another 40 mins at room temperature in the dark. The reaction was stopped by the addition of 1M H2SO4 (50 μL/well) and the optical density was read at 450/650 nm.
Test compounds were assayed in triplicate at 16 concentrations at half-log dilutions starting at 200 μM. A maximum and minimum signal for the assay was determined on each plate. The percent inhibition of a test compound was calculated according to the formula [formula]
For a series of test concentrations, the IC50 was derived by graphing percent inhibition against the log of the concentrations tested for a given compound. For those compounds without an IC50, the percent inhibition results are shown at a test concentration of 1 μM.

SMILES	IC50
O=C1NC(=O)c2c1c1c3ccccc3n3c1c1c2c2ccccc2n1C/C=C\C3 [Cpd 1, 12,13-(but-2-en-1,4-yl)-12,13-dihydro-5,7-dioxo-6H-indolo[2,3-a]pyrrolo[3,4-c]carbazole]	22 nM
O=C1NCc2c1c1c3ccccc3n3c1c1c2c2ccccc2n1C/C=C\C3 [Cpd 2, 12,13-(but-2-en-1,4-yl)-6,7,12,13-tetrahydro-5-oxo-5H-indolo[2,3-a]pyrrolo[3,4-c]carbazole]	40 nM
COC(=O)/C1=C/Cn2c3ccccc3c3c4c(c5c6ccccc6n(c5c32)C1)C(=O)NC4=O [Cpd 3, 12,13-(2-methoxycarbonyl-but-2-en-1,4-yl)-12,13-dihydro-5,7-dioxo-6H-indolo[2,3-a]pyrrolo[3,4-c]carbazole]	7 nM
C/C1=C(\C)Cn2c3ccccc3c3c4c(c5c6ccccc6n(c5c32)C1)CNC4=O [Cpd 4, 12,13-(2,3-dimethyl-but-2-en-1,4-yl)-6,7,12,13-tetrahydro-5-oxo-5H-indolo[2,3-a]pyrrolo[3,4-c]carbazole]	72 nM
O=C1NCc2c1c1c3ccccc3n3c1c1c2c2ccccc2n1CC/C=C\CC3 [Cpd 5, 12,13-(hex-3-en-1,6-yl)-6,7,12,13-tetrahydro-5-oxo-5H-indolo[2,3-a]pyrrolo[3,4-c]carbazole]	39 nM
O=C1NCc2c1c1c3cc(Br)ccc3n3c1c1c2c2ccccc2n1C/C=C\C3 [Cpd 6, 3-bromo-12,13-(but-2-en-1,4-yl)-6,7,12,13-tetrahydro-5-oxo-5H-indolo[2,3-a]pyrrolol [3,4-c]carbazole]	171 nM
O=C1NC(=O)c2c1c1c3ccccc3n3c1c1c2c2ccccc2n1CC(O)CC3 (stereo not drawn) [Cpd 7, 12,13-(2-hydroxy-butan-1,4-yl)-12,13-dihydro-5,7-dioxo-6H-indolo[2,3-a]pyrrolo[3,4-c]carbazole]	5 nM
O=C1NC(=O)c2c1c1c3ccccc3n3c1c1c2c2ccccc2n1CC(O)CCC3 (stereo not drawn) [Cpd 8]	8 nM
COC1Cn2c3ccccc3c3c4c(c5c6ccccc6n(c5c32)CC1OC)C(=O)NC4=O (stereo not drawn) [Cpd 10, 12,13-(2,3-dimethoxy-butan-1,4-yl)-12,13-dihydro-5,7-dioxo-6H-indolo[2,3-a]pyrrolo[3,4-c]carbazole]	16 nM
O=C1NC(=O)c2c1c1c3ccccc3n3c1c1c2c2ccccc2n1CC(O)C(O)CC3 (stereo not drawn) [Cpd 11, 12,13-(2,3-dihydroxy-pentan-1,5-yl)-12,13-dihydro-5,7-dioxo-6H-indolo[2,3-a]pyrrolo[3,4-c]carbazole]	9 nM
COC(=O)C1(O)Cn2c3ccccc3c3c4c(c5c6ccccc6n(c5c32)CC1O)C(=O)NC4=O (stereo not drawn) [Cpd 12, 12,13-(2-methoxycarbonyl-2,3-dihydroxy-butan-1,4-yl)-12,13-dihydro-5,7-dioxo-6H-indolo[2,3-a]pyrrolo[3,4-c]carbazole]	1 nM
O=C1NC(=O)c2c1c1c3ccccc3n3c1c1c2c2ccccc2n1CC(O)(C(=O)O)C(O)C3 (stereo not drawn) [Cpd 13, 12,13-(2-carboxy-2,3-dihydroxy-butan-1,4-yl)-12,13-dihydro-5,7-dioxo-6H-indolo[2,3-a]pyrrolo[3,4-c]carbazole]	9 nM
O=C1NCc2c1c1c3ccccc3n3c1c1c2c2ccccc2n1CC(O)C(O)C3 (stereo not drawn) [Cpd 14, 12,13-(2,3-dihydroxy-butan-1,4-yl)-6,7,12,13-tetrahydro-5-oxo-5H-indolo[2,3-a]pyrrolo[3,4-c]carbazole]	7 nM
CN(C)CC(=O)OC1Cn2c3ccccc3c3c4c(c5c6ccccc6n(c5c32)CC1OC(=O)CN(C)C)C(=O)NC4 (stereo not drawn) [Cpd 15, 12,13-{2,3-bis-[(dimethylaminomethyl)carbonyloxy]-butan-1,4-yl}-6,7,12,13-tetrahydro-5-oxo-5H-indolo[2,3-a]pyrrolo[3,4-c]carbazole]	653 nM
CC1(C)O[C@H]2Cn3c4ccccc4c4c5c(c6c7ccccc7n(c6c43)C[C@@H]2O1)C(=O)NC5 [Cpd 16, 12,13-[(4S,5S)-2,2-dimethyl-[1,3]dioxolo[4,5-b]butan-1,4-yl]-6,7,12,13-tetrahydro-5-oxo-5H-indolo[2,3-a]pyrrolo[3,4-c]carbazole]	105 nM
